Test results from patent US8580753B2, “Modulation of telomere length in telomerase positive cells and cancer therapy” (ALT Solutions Inc., priority 2005, dated 2013).
Entries after “also recorded” stand apart in the source; their conditions may differ. Like-named read-outs stand apart in the source and are kept apart here.

Tests used:
NuTu-19 cell line [1] = experiment: Telomere length by flow cytometry with telomere-specific PNA probe; type: cell-based; settings: for telomere length: NuTu-19, GCV 1.5 μM or ACV 3.0 μM, 14 days
Experimental: (§1) Telomere length in GCV and ACV treated and untreated cell lines was measured by flow cytometry with a telomere-specific peptide nucleic acid (PNA) probe^23,24. To determine cell cycle distribution, cells were stained with propidium iodide (PI)^23.
(§2) The origin of the cell lines are uterine cervix (HeLa) and epithelial ovarian (NuTu-19). Cells were cultured in D-MEM media supplemented with 10% fetal calf serum at 37° C. in a humidified atmosphere of 5% CO2. For treatment of the cells with GCV, the media was supplemented with 1.5 µM of GCV (Cymevene, Hoffman-La Roche). For treatment of the cells with ACV, the media was supplemented with 3 µM of Aciclovir (Aciclovir, TEVA Pharm. Ind. Ltd, Israel).
(§3) For telomere length measurement by flow cytometry, cells were stained with telomere specific FITC conjugated (C3TA2)3 PNA (Applied Biosystems) probe and contrastained with 0.06 µg/ml PI as described by Rufer, N., Dragowska, W., Thornbury G., Roosnek, B., Lansdorp P. M. Telomere length dynamics in human lymphocyte subpopulations […]. Nat. Biotechnol. 16, 743-747 (1998)).

[2] = tested on: telomerase positive cell lines; experiment: DNA content by PI staining at later stages of treatment; type: cell-based; settings: compared to untreated cells, cell line not specified
Experimental: A rational explanation of this fact is a short telomere induced chromosome end-to-end joining^25.
as §2, §3

NuTu-19 cell line [3] = experiment: Cell cycle distribution and apoptosis by propidium iodide staining and flow cytometry; type: cell-based
Experimental: as §1
(§4) It is important to note that changes were rapid and could be detected after only 14 days of ACV treatment. In contrast, the nucleoside analog, AZT had no effect on telomere length or cell cycle distribution in telomerase positive cells, HeLa and NuTu-19, even at elevated concentrations e.g., 100 µM (data not shown).
as §2, §3

NuTu-19 cells = experiment: Exemplary in vivo assay: pre-established NuTu-19 tumors in Fischer rats; settings: for tumor growth: in drinking water ad libitum, administered 21-28 days to tumor bearing rats
Experimental: In another embodiment, the reagents and methods of the invention can be used to promote tumor regression in vivo in immunocompetent animals carrying pre-established tumors; i.e., the reagents of the invention can be used to treat animals with pre-existing tumors. In this case, the cancerous 10^6 NuTu-19 cells are injected subcutaneously in the flank of the Fischer rats to establish tumors.

HeLa cell line [4] = experiment: Cell cycle distribution and apoptosis by propidium iodide staining and flow cytometry; type: cell-based, human
Experimental: as §1, §4, §2, §3

HeLa cell line [5] = experiment: Telomere length by flow cytometry with telomere-specific PNA probe; type: cell-based, human
Experimental: as §1, §2, §3

[6] = tested on: telomerase positive cell lines; settings: prolonged exposure, cited from earlier work
[7] = single oral dose of 300 mg; cited from earlier work
mammalian cells = settings: short-time exposure, 5 μM, in vitro and in vivo; cited from earlier work
HeLa cells = experiment: Nude mice injected s.c. with HeLa cells, Valcyte in drinking water; type: in vivo
Experimental: Human cancer HeLa cell culture was purchased from ATCC. In all, 12 CD1/-nu and 12 NMRiJI-nu nude mice were purchased from Charles River Laboratories, Charles River Deutschland GmbH. These nude mice were injected s.c. with […] HeLa cells. Experimental group received valganciclovir in drinking water from day 0. Specifically, mice in the experimental groups (6 mice per strain) were exposed to Valcyte (val-ganciclovir) in drinking water (1 mg/ml) from day 0. […] In about 14 days, all mice were bearing the tumors.

[8] = NuTu-19, GCV 1.5 μM or ACV 3.0 μM, 14 days
[9] = GCV 1.5 μM or ACV 3.0 μM, 14 days
[10] = NuTu-19, even at elevated concentrations e.g. 100 μM (data not shown)
[11] = even at elevated concentrations e.g. 100 μM (data not shown)

Nc1nc2c(ncn2COCCO)c(=O)[nH]1 [ACV, 9-[2(hydromethoxy)-methyl] guanine]
telomere length (NuTu-19 cell line [1]): decrease in telomere length; also recorded: telomere shortening | DNA content (PI staining) [2]: higher DNA content | apoptosis (NuTu-19 cell line [3]; [8]): massive apoptosis | cell cycle distribution (NuTu-19 cell line [3]; [8]): changes in cell cycle; also recorded: G2 arrest | tumor growth (NuTu-19 cells): retarded tumor growth | apoptosis (HeLa cell line [4]; [9]): massive apoptosis | cell cycle distribution (HeLa cell line [4]; [9]): G2 arrest | telomere length (HeLa cell line [5]; [9]): telomere shortening

Cc1cn([C@H]2C[C@H](N=[N+]=[N-])[C@@H](CO)O2)c(=O)[nH]c1=O [AZT, 3′-azido-2′,3′-dideoxythymidine]
effect on telomere length (NuTu-19 cell line [1]; [10]): no effect | telomere shortening ([6]; 100 μM (Murakami et al. 1999)): failed to induce any significant telomere shortening | telomere shortening ([6]; 800 μM (Gomez et al. 1998; Tejera et al. 2001)): failed to induce any significant telomere shortening | effect on cell cycle distribution (NuTu-19 cell line [3]; [10]): no effect | peak serum concentration [7]: less than 10 μM | time of absorption [7]: ≤ 0.5 h | effect on cell cycle distribution (HeLa cell line [4]; [11]): no effect | effect on telomere length (HeLa cell line [5]; [11]): no effect | toxic effects on mammalian cells (mammalian cells): induces undesirable toxic effects

Nc1nc(O)c2ncn(COC(CO)CO)c2n1 [GCV, ganciclovir]
telomere length (NuTu-19 cell line [1]): telomere shortening | DNA content (PI staining) [2]: higher DNA content | cell cycle distribution (NuTu-19 cell line [3]; NuTu-19, 1.5 μM GCV, 10 days (FIG. 3)): changes in the cell cycle distribution | apoptosis (NuTu-19 cell line [3]; [8]): massive apoptosis | cell cycle distribution (NuTu-19 cell line [3]; [8]): G2 arrest | survival (NuTu-19 cells; few weeks after the start of the treatment): 100% | tumor growth (NuTu-19 cells): retarded tumor growth | apoptosis (HeLa cell line [4]; 1.5 μM GCV, 10 days (FIG. 1)): massive apoptosis | cell cycle distribution (HeLa cell line [4]; 1.5 μM GCV, 10 days (FIG. 1, FIG. 3)): changes in the cell cycle distribution | apoptosis (HeLa cell line [4]; [9]): massive apoptosis | cell cycle distribution (HeLa cell line [4]; [9]): G2 arrest | telomere length (HeLa cell line [5]; 1.5 μM GCV, 10 days, vs untreated cells (FIG. 1)): decrease in telomere length | telomere length (HeLa cell line [5]; [9]): telomere shortening

CC(C)[C@H](N)C(=O)OCC(CO)OCn1cnc2c(=O)nc(N)[nH]c21 (stereo partly drawn) [Valcyte, valganciclovir]
tumor development (HeLa cells; 1 mg/ml in drinking water from day 0, all mice bearing tumors in about 14 days): All mice in control and treated groups had developed tumors | tumor regression (HeLa cells; one mouse from the treated group, by about the 30th day, monotherapy, 1 mg/ml in drinking water): this tumor was eliminated | tumor growth (HeLa cells; other mice in the treated groups, 1 mg/ml in drinking water): slowing of tumor growth (stabilization)
